These results are taken from ChEMBL document CHEMBL3608254, “Discovery of novel triazolobenzazepinones as γ-secretase modulators with central Aβ42 lowering in rodents and rhesus monkeys” (Bioorg Med Chem Lett, 2015).

Calls of active or inactive are those of the source. The rule behind the calls is not given here.

One may read the IC50 as the concentration at which inhibition is half-maximal. By half-life is commonly meant the time in which the quantity being followed falls by half. Lower therefore signals rapid decline.

One series concerns Mus musculus. Briefly: Antialzheimer's disease activity in po dosed APP-YAC transgenic mouse assessed as reduction of amyloid beta-40/42 level in brain measured after 6 hrs. In kind it is functional.
The test system of the next series is Rattus norvegicus. The series can be described thus: Antialzheimer's disease activity in po dosed Sprague-Dawley rat assessed as reduction of amyloid beta-40/42 level in brain measured after 6 hrs. In kind it is functional.
Series [1] in a line: Inhibition of gamma-secretase-mediated cleavage of NotchdeltaE in human HeLa cells expressing NotchdeltaE assessed as intracellular release of Notch intracellular domain (NICD)/N-terminal luciferase by luminescent method. It counts as cell-based.
Series [2] addresses Gamma-secretase. The series can be described thus: Inhibition of gamma-secretase in human SH-SY5Y cells expressing beta-APP C-terminal fragment SPA4CT assessed as decrease of amyloid beta-40 level by electrochemiluminescent method. In kind it is cell-based.
Series [3] deals with Gamma-secretase. Briefly: Inhibition of gamma-secretase in human SH-SY5Y cells expressing beta-APP C-terminal fragment SPA4CT assessed as decrease of amyloid beta-42 level by electrochemiluminescent method. It counts as cell-based.
Series [4] deals with Sodium-dependent serotonin transporter (Homo sapiens, UniProt P31645). Briefly: Inhibition of SERT (unknown origin).
Sequence of Sodium-dependent serotonin transporter (P31645 whole entry, looked up): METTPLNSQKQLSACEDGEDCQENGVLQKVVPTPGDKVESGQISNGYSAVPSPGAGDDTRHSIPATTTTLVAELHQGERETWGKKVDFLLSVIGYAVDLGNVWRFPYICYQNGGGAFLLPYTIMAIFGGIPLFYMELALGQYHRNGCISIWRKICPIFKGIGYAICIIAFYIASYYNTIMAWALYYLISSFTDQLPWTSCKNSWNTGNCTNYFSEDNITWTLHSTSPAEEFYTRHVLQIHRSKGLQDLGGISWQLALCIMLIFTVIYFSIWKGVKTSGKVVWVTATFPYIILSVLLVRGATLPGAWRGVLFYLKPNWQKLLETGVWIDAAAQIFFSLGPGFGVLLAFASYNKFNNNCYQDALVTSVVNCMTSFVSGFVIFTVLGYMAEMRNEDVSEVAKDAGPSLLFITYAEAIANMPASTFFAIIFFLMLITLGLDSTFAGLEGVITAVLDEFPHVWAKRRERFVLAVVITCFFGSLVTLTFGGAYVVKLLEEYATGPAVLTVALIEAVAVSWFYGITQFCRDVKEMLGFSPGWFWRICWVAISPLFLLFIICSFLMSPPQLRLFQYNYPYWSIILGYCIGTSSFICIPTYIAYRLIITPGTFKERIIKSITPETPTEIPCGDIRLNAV
Series [5] deals with Voltage-gated inwardly rectifying potassium channel KCNH2 (Homo sapiens, UniProt Q12809).
Sequence of Voltage-gated inwardly rectifying potassium channel KCNH2 (Q12809 whole entry): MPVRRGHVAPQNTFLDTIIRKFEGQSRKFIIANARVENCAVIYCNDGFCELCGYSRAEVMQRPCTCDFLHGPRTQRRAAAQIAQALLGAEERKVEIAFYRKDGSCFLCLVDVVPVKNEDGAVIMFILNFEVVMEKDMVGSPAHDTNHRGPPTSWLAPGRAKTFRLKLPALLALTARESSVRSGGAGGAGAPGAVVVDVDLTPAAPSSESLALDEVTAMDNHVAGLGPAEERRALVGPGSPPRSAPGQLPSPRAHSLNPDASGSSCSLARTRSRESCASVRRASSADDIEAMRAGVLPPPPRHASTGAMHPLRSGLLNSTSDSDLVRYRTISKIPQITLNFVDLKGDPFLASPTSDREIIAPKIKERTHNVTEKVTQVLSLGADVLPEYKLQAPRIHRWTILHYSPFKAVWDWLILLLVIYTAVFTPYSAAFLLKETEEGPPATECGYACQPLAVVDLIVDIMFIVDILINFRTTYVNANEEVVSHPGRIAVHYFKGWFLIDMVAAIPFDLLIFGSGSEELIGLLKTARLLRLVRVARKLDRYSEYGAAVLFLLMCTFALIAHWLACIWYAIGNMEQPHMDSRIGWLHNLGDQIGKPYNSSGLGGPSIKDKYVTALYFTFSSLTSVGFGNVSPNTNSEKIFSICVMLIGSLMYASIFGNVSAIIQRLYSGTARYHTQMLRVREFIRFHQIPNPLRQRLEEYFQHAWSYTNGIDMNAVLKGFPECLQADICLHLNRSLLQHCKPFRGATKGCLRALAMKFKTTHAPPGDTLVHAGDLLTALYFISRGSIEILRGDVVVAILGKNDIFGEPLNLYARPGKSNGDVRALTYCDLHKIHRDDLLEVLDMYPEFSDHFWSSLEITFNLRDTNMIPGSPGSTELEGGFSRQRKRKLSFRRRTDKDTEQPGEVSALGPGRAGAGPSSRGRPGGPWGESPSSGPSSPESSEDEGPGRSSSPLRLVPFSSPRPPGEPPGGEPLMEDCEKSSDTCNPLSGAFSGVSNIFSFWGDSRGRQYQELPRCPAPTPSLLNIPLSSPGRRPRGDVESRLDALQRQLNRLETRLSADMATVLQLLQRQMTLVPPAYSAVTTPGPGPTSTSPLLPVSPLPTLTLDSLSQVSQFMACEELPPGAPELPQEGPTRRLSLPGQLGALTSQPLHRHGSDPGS
Description: Binding affinity to human ERG expressed in HEK cells by MK-499 radioligand displacement assay
The nature of series [6]: Half life in rat liver microsomes. It counts as ADME. On the technique in general: Liver microsomes are a subcellular fraction often used to study metabolism.

In the case of `COc1cc(-c2cn(C3CCc4c(F)cc(F)cc4N(CC(F)(F)F)C3=O)nn2)ccc1-n1cnc(C)c1` (centres undefined), the outcome in the series with Mus musculus and in the series on Rattus norvegicus was Active. In addition, the concentration for half-maximal inhibition (IC50) in series [1] is greater than 50000 nM; on Gamma-secretase [2] it was 150 nM; at Gamma-secretase [3] it was 40 nM.
With `COc1cc(-c2cn(C3CCc4ccccc4N(C)C3=O)nn2)ccc1-n1cnc(C)c1` (centres undefined), the 50% inhibitory concentration (IC50) in series [1] was greater than 50000 nM; at Gamma-secretase [2], 3080 nM; at Gamma-secretase [3] it was 430 nM.
Turning to `COc1cc(-c2cn(C3CCc4ncccc4N(CC(F)(F)F)C3=O)nn2)ccc1-n1cnc(C)c1` (centres undefined), in series [4], the inhibition result was “inactive”. Also, the outcome in the series with Mus musculus and in the series with Rattus norvegicus was Active. In addition, the half-maximal inhibitory concentration (IC50) in series [1] is 41800 nM; at Gamma-secretase [2] it was 940 nM; on Gamma-secretase [3], 150 nM; in series [5], greater than 50000 nM.
Turning to `COc1cc(-c2cn(C3CCc4ccccc4N(CC(F)F)C3=O)nn2)ccc1-n1cnc(C)c1` (centres undefined), the values for the half-maximal inhibitory concentration (IC50) (in series [1]; on Gamma-secretase [2]; at Gamma-secretase [3]) were greater than 50000 nM, 700 nM and 150 nM, respectively.
On to `COc1cc(-c2cn(C3CCc4c(ccc(Br)c4F)N(CC(F)(F)F)C3=O)nn2)ccc1-n1cnc(C)c1` (centres undefined), for which the outcome in the series on Mus musculus and in the series on Rattus norvegicus was Active. In addition, the IC50 in series [1] is greater than 50000 nM; at Gamma-secretase [2], 50 nM; on Gamma-secretase [3], 10 nM; in series [5] it was 530 nM.
For the compound `COc1cc(-c2cn(C3CCc4ccccc4N(Cc4cccnc4)C3=O)nn2)ccc1-n1cnc(C)c1` (racemic), the half-maximal inhibitory concentration (IC50) in series [1] was greater than 50000 nM; on Gamma-secretase [2], 4690 nM; at Gamma-secretase [3], 880 nM.
The corresponding values for `COc1cc(-c2cn(C3CCc4ccccc4N(CCF)C3=O)nn2)ccc1-n1cnc(C)c1` (centres undefined) are greater than 50000 nM, 3140 nM and 440 nM.
`COc1cc(-c2cn(C3CCc4c(ccc5ccccc45)N(CC(F)(F)F)C3=O)nn2)ccc1-n1cnc(C)c1` (centres undefined): the outcome with Mus musculus and in the series on Rattus norvegicus was Active. Further, the results for the IC50 (in series [1]; on Gamma-secretase [2]; at Gamma-secretase [3]) were greater than 50000 nM, 70 nM and 30 nM, respectively.
Regarding `COc1cc(-c2cn(C3CCc4cccnc4N(CC(F)(F)F)C3=O)nn2)ccc1-n1cnc(C)c1` (centres undefined), the outcome in the series with Mus musculus and in the series on Rattus norvegicus was Active. For the same compound, the IC50 in series [1] is greater than 50000 nM; on Gamma-secretase [2] it was 1340 nM; on Gamma-secretase [3] it was 180 nM; in series [5], 8740 nM.
For the compound `COc1cc(-c2cn(C3CCc4ccccc4N(Cc4ccccc4)C3=O)nn2)ccc1-n1cnc(C)c1` (racemic), the half-inhibitory concentration (IC50) is greater than 50000 nM in series [1], 2010 nM on Gamma-secretase [2] and 240 nM on Gamma-secretase [3].
Consider `COc1cc(-c2cn(C3CC[C@@H]4CCCC[C@H]4N(Cc4ccccc4)C3=O)nn2)ccc1-n1cnc(C)c1` (some centres undefined), for which, in series [4], the inhibition entry was “inactive”. Further, the result in the series with Mus musculus and in the series with Rattus norvegicus was Active. The half-maximal inhibitory concentration (IC50) was greater than 50000 nM in series [1], 470 nM on Gamma-secretase [2] and 70 nM at Gamma-secretase [3].
Consider `COc1cc(-c2cn([C@H]3C[C@H](C)c4ccccc4N(CC(F)(F)F)C3=O)nn2)ccc1-n1cnc(C)c1`, for which the outcome in the series on Mus musculus and in the series with Rattus norvegicus was Active. Further, the half-life in series [6] was found to be 72 min. Besides, the IC50 in series [1] amounted to 36600 nM; at Gamma-secretase [2], 170 nM; on Gamma-secretase [3], 40 nM; in series [5] it was 6680 nM.
`COc1cc(-c2cn(C3CCc4ccccc4N(CC(F)(F)F)C3=O)nn2)ccc1-n1cnc(C)c1` (centres undefined) registered a half-life in series [6] of 35 min. For the same compound, the figures for the IC50 (in series [1]; at Gamma-secretase [2]; at Gamma-secretase [3]) were greater than 50000 nM, 320 nM and 70 nM, respectively.
As for `COc1cc(-c2cn(C3CSc4ccccc4N(CC(F)(F)F)C3=O)nn2)ccc1-n1cnc(C)c1` (centres undefined), the result with Mus musculus and in the series with Rattus norvegicus was Active. In addition, the IC50 in series [1] turned out to be 28400 nM; on Gamma-secretase [2], 240 nM; at Gamma-secretase [3] it was 60 nM; in series [5], 4750 nM.
Consider `COc1cc(-c2cn(C3CCc4ccccc4N(Cc4ccccn4)C3=O)nn2)ccc1-n1cnc(C)c1` (racemic), for which the IC50 is greater than 50000 nM in series [1], 5400 nM on Gamma-secretase [2] and 1080 nM at Gamma-secretase [3].
For the compound `COc1cc(-c2cn(C3(C)CCc4ccccc4N(CC(F)(F)F)C3=O)nn2)ccc1-n1cnc(C)c1` (centres undefined), the result in the series with Mus musculus and in the series with Rattus norvegicus was Active. Further, the 50% inhibitory concentration (IC50) is greater than 50000 nM in series [1], 6380 nM on Gamma-secretase [2], 580 nM on Gamma-secretase [3] and 6000 nM in series [5].
For `COc1cc(-c2cn(C3CCc4ccccc4N(Cc4ccncc4)C3=O)nn2)ccc1-n1cnc(C)c1` (racemic), the half-maximal inhibitory concentration (IC50) in series [1] was greater than 50000 nM; on Gamma-secretase [2], 6750 nM; on Gamma-secretase [3], 1190 nM.
Take `COc1cc(-c2cn(C3CCc4cc(F)ccc4N(CC(F)(F)F)C3=O)nn2)ccc1-n1cnc(C)c1` (centres undefined): the outcome in the series on Mus musculus and in the series with Rattus norvegicus was Active. In addition, the IC50 in series [1] was 34100 nM; on Gamma-secretase [2] it was 190 nM; on Gamma-secretase [3] it was 40 nM; in series [5], 2680 nM.
With `COc1cc(-c2cn(C3CCc4ccccc4N(CC4CC4)C3=O)nn2)ccc1-n1cnc(C)c1` (centres undefined), the IC50 in series [1] came to 25600 nM; on Gamma-secretase [2], 3980 nM; at Gamma-secretase [3], 370 nM.
As for `COc1cc(-c2cn(C3CCc4ccccc4N(CC4(C)COC4)C3=O)nn2)ccc1-n1cnc(C)c1` (racemic), the half-maximal inhibitory concentration (IC50) is greater than 50000 nM in series [1], 7480 nM at Gamma-secretase [2] and 1250 nM at Gamma-secretase [3].
Consider `COc1cc(-c2cn(C3CCc4ccccc4NC3=O)nn2)ccc1-n1cnc(C)c1` (centres undefined), for which the IC50 in series [1] was found to be 33000 nM; at Gamma-secretase [2], 4720 nM; on Gamma-secretase [3], 390 nM.
